In PMC4703387, “Identification of the Calmodulin-Binding Domains of Fas Death Receptor” (PLoS ONE, 2016):
Where no end group is shown, it is not given here.

Assays:
Ca^2+/CaM [1] = target: T1, Ca^2+/CaM (Homo sapiens, UniProt P0DP23); assay: NMR titration (2D 1H-15N HSQC) of 15N-labeled Ca^2+/CaM with FasDD peptides; format: binding; settings: 1H-15N HSQC, 15N-Ca^2+/CaM 100–150 μM, 35°C, pH 7.0
T1 construct: made in house
Protocol: NMR data were collected at 35°C on a Bruker Avance II (700 MHz ^1H) spectrometer equipped with a cryogenic triple-resonance probe, processed with NMRPIPE [35] and analyzed with NMRVIEW [36] or CCPN Analysis. […] For signal assignments of the complexes, ^13C-, ^15N-, or ^13C-/^15N-labeled Ca^2+/CaM at ~400–500 μM was mixed with unlabeled Fas-Pep1 (in 100% DMSO-d6) or Fas-Pep2 at 1.5:1 peptide:Ca^2+/CaM. […] The backbone atom resonances of Ca^2+/CaM complexes with Fas-Pep1 and Fas-Pep2 were assigned using HNCA, HN(CO)CA, HNCACB, HNCO, HN(CO)CACB and ^15N-edited NOESY-HSQC and TOCSY-HSQC experiments. These experiments have been also collected on ^15N-, or ^13C-/^15N-labeled Fas-Pep2 in complex with unlabeled Ca^2+/CaM to confirm the α-helical character of Fas-Pep2 when bound to Ca^2+/CaM. The chemical shifts of Ca^2+/CaM-bound Fas-Pep2 were used to predict its order parameters and secondary structure content in TALOS+.[38] Combined ^1H-^15N chemical shift changes were calculated as ΔδHN = [(ΔδH)^2+(ΔδN/5)^2]^1/2, where ΔδH and ΔδN are the ^1H and ^15N chemical shift changes, respectively. Kd values were calculated by non-linear least-square fitting algorithm in Origin software (OriginLab, Northampton, MA) using the equation: ΔδHN=ΔδHN^max((Kd+L0+P0)−((Kd+L0+P0)^2−4*P0*L0)^0.5)/(2*P0) where ΔδHN^max is the chemical shift change between complex and free protein, L0 total concentration of ligand, and P0 total concentration of protein.
To gain insights into the molecular elements of Ca^2+/CaM–FasDD interaction and to identify the interaction interface, we have utilized NMR chemical shift perturbation (CSP) as detected in ^1H-^15N heteronuclear single quantum coherence (HSQC) spectra. These experiments not only allow for identification of residues involved in binding but can also provide information on the induced conformational changes within proteins. 2D ^1H-^15N HSQC data obtained for a uniformly ^15N-labeled Ca^2+/CaM upon titration with unlabeled Fas-Pep1 are shown in Fig 5. Addition of substoichiometric amounts of Fas-Pep1 (0.5:1 peptide:Ca^2+/CaM) led to a decrease in intensity for a significant number of ^1H-^15N resonances accompanied by appearance of several new signals, consistent with a slow exchange on the NMR scale between the free and bound forms of Ca^2+/CaM. A steady decrease in intensity for the original ^1H-^15N signals and increase in intensity of the new signals was clearly observed with further addition of Fas-Pep1. Spectral changes ceased upon completion of peptide titration at 1.5:1 Fas-Pep1:Ca^2+/CaM ratio when only the new set of signals was present (Fig 5). […]
Only residues 214–227 have been detected in the x-ray structure of Ca^2+/CaM bound to FasDD(214–238); no electron density has been detected for residues 228–238.[40] […]

Ca^2+/CaM [2] = target: T1, Ca^2+/CaM; assay: Circular dichroism (CD) spectroscopy; format: physicochemical; settings: 25°C, 10 mM HEPES (pH 7), 50 mM KCl, 2.5 mM CaCl2
Protocol: CD spectra were acquired on a Jasco J815 spectropolarimeter at 25°C from 260 to 185 nm. Scanning rate was set to 50 nm/min. Loading concentrations were ~16–20 μM for free peptides, 18 μM for free Ca^2+/CaM and 10 μM for the complexes in a buffer containing 10 mM HEPES (pH 7), 50 mM KCl, and 2.5 mM CaCl2. The background signal from the buffer solution was subtracted from each spectrum. Ca^2+/CaM complexes with peptides were run on gel filtration column (as described above) to ensure high purity and homogeneity prior to collection of the CD spectra.

Ca^2+/CaM [3] = target: T1, Ca^2+/CaM; assay: 2D 1H-13C HMQC of 13C-labeled Ca^2+/CaM methionine methyl groups; format: binding
Excerpt: In the second approach, we assessed the role of hydrophobic surfaces located on the N- and C-terminal lobes of Ca^2+/CaM. These hydrophobic surfaces, which contribute to the flexibility and function of Ca^2+/CaM, are only formed when Ca^2+ is bound.[24] Ca^2+ binding induces a helical rearrangement, leading to exposure of eight methionine (Met) residues.[46, 47] Met residues are essential for the unique promiscuous binding behavior of Ca^2+/CaM to target proteins.[47] The methyl groups of Met residues are useful “NMR reporters” and widely used to probe for target binding.[34, 42, 47–49] Five Met residues (36, 51, 71, 72 and 76) are located in the N-terminal lobe and four (109, 124, 144, and 145) are located within the hydrophobic patch in the C-terminal lobe (Fig 8A). To assess whether the N- and C-terminal hydrophobic surfaces contribute to the binding of FasDD peptides, we collected 2D ^1H-^13C HMQC data on a uniformly ^13C-labeled Ca^2+/CaM sample as titrated with Fas-Pep1 or Fas-Pep2. Addition of a substoichiometric amount of Fas-Pep1 (0.5:1 peptide:Ca^2+/CaM) led to a decrease in the intensity of ^1H-^13C signals of M51, M71, M72, M109, M124 and M145 (Fig 8B, upper panel). Minimal or no chemical shift changes have been observed for signals corresponding to M76 and M144. Further addition of Fas-Pep1 led to appearance of new signals (Fig 8B). […]

## VQDTAEQKVQLLRNWHQLHGKKEAYDTLIKDLKKANLC [Fas-Pep2]
Ca^2+/CaM [1]
  NMR exchange regime with Ca^2+/CaM: slow exchange
Ca^2+/CaM [2]; complex 10 μM
  change in CD signal at 208 and 222 nm of Ca^2+/CaM on peptide binding: An increase in the intensity of the CD signal at 208 and 222 nm
Ca^2+/CaM [2]; far-UV CD, ~16–20 μM peptide, 18 μM Ca^2+/CaM
  secondary structure of free peptide/protein: random coil
Ca^2+/CaM [3]
  CSPs of Met resonances on binding: Notable CSPs are also observed in all of the ^1H-^13C resonances of Met residues
